The values that follow are results of earlier work, collected in patent US20230126271A1, “DEGRADER-ANTIBODY CONJUGATES AND METHODS OF USING SAME” (Anglex, Inc., priority 2020, published 2023).

The conditions of series [1]: in vivo.
The conditions of series [2]: in vivo. This is another data set of the same source.

For `CC1(C)CCC(c2ccc(Cl)cc2)=C(CN2CCN(c3ccc(C(=O)NS(=O)(=O)c4ccc(N[C@H](CCN5CCOCC5)CSc5ccccc5)c(S(=O)(=O)C(F)(F)F)c4)cc3)CC2)C1` [ABT 263], in series [1], the “toxicity in the clinic” value was “on-target and dose-limiting thrombocytopenia”.

Consider `COc1ccc(/C=C\c2cc(OC)c(OC)c(OC)c2)cc1OP(=O)(O)O` [CA4P, Combretastatin], for which the “patients who experienced heart attacks while being treated” value in series [2] is “seven”.

Regarding `CN(C)CC#Cc1ccc(OCCCc2sc(N3CCc4cccc(C(=O)Nc5nc6ccccc6s5)c4C3)nc2C(=O)O)c(F)c1` [A115463], in series [1], the “toxicity in the clinic” value is “on-target and dose-limiting thrombocytopenia”.
